Laboratory results as given in PubChem BioAssay (NCI).
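Abbreviation: GI50, concentration required for 50% inhibition of growth. TGI denotes the concentration required for complete inhibition of growth.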

Legend:
Experiment in all cases: inhibition of tumour cell growth, NCI panel, 384-well format
RPMI-8226 leukemia = tested on: RPMI-8226 leukemia
SF-268 CNS = tested on: SF-268 CNS
SNB-19 CNS = tested on: SNB-19 CNS
HOP-92 NSCLC = tested on: HOP-92 NSCLC
K-562 leukemia = tested on: K-562 leukemia
NCI-H23 lung = tested on: NCI-H23 lung
DU-145 prostate = tested on: DU-145 prostate
MDA-MB-231 breast = tested on: MDA-MB-231 breast
COLO 205 colon = tested on: COLO 205 colon
NCI-H322M lung = tested on: NCI-H322M lung
HCC-2998 colon = tested on: HCC-2998 colon
SK-OV-3 ovarian = tested on: SK-OV-3 ovarian
EKVX NSCLC = tested on: EKVX NSCLC
MOLT-4 leukemia = tested on: MOLT-4 leukemia
TK-10 renal = tested on: TK-10 renal
HCT-15 colon = tested on: HCT-15 colon
U251 glioblastoma = tested on: U251 glioblastoma
SK-MEL-2 melanoma = tested on: SK-MEL-2 melanoma
HT29 colon = tested on: HT29 colon
OVCAR-8 ovarian = tested on: OVCAR-8 ovarian
MALME-3M melanoma = tested on: MALME-3M melanoma
SK-MEL-5 melanoma = tested on: SK-MEL-5 melanoma
SW-620 colon = tested on: SW-620 colon
KM12 colon = tested on: KM12 colon
OVCAR-5 ovarian = tested on: OVCAR-5 ovarian
HL-60(TB) leukemia = tested on: HL-60(TB) leukemia
MDA-MB-435 melanoma = tested on: MDA-MB-435 melanoma
IGROV1 ovarian = tested on: IGROV1 ovarian
PC-3 prostate = tested on: PC-3 prostate
CAKI-1 renal = tested on: CAKI-1 renal

Compound `CC[C@H](Nc1ncnc2nc[nH]c12)c1oc2ccccc2c(=O)c1-c1cccc(F)c1` has a GI50 (RPMI-8226 leukemia) of 8.38 µM, a TGI (RPMI-8226 leukemia) of 20.5 µM and a GI50 (SF-268 CNS) of 29.8 µM. For the same compound, the TGI (SF-268 CNS) was greater than 89.4 µM, the GI50 (SNB-19 CNS) was 37.1 µM and the TGI (SNB-19 CNS) was greater than 100 µM. For the same compound, the GI50 (HOP-92 NSCLC) was 14.6 µM, the TGI (HOP-92 NSCLC) was 39.1 µM and the GI50 (K-562 leukemia) was 26.5 µM. For the same compound, the TGI (K-562 leukemia) was greater than 96.6 µM, the GI50 (NCI-H23 lung) was 23.9 µM and the TGI (NCI-H23 lung) was 78.3 µM. For the same compound, the GI50 (DU-145 prostate) was 29.6 µM, the TGI (DU-145 prostate) was greater than 100 µM and the GI50 (MDA-MB-231 breast) was 26.2 µM. For the same compound, the TGI (MDA-MB-231 breast) was greater than 100 µM, the GI50 (COLO 205 colon) was 42.4 µM and the TGI (COLO 205 colon) was greater than 100 µM. It also gave a GI50 (NCI-H322M lung) of 90.5 µM, a TGI (NCI-H322M lung) greater than 100 µM and a GI50 (HCC-2998 colon) of 32.6 µM. It also gave a TGI (HCC-2998 colon) of 80 µM, a GI50 (SK-OV-3 ovarian) of 24.5 µM and a TGI (SK-OV-3 ovarian) of 63.8 µM. It also gave a GI50 (EKVX NSCLC) of 23.8 µM, a TGI (EKVX NSCLC) of 70.7 µM and a GI50 (MOLT-4 leukemia) of 15.8 µM. For the same compound, the TGI (MOLT-4 leukemia) was 29.6 µM, the GI50 (TK-10 renal) was 29.8 µM and the TGI (TK-10 renal) was greater than 95.2 µM. The GI50 (HCT-15 colon) was 30.7 µM, the TGI (HCT-15 colon) was 99.1 µM and the GI50 (U251 glioblastoma) was 31 µM. The TGI (U251 glioblastoma) was greater than 100 µM, the GI50 (SK-MEL-2 melanoma) was 13.7 µM and the TGI (SK-MEL-2 melanoma) was 30.1 µM. For the same compound, the GI50 (HT29 colon) was 32.3 µM, the TGI (HT29 colon) was greater than 100 µM and the GI50 (OVCAR-8 ovarian) was 32.6 µM. It also gave a TGI (OVCAR-8 ovarian) greater than 100 µM, a GI50 (MALME-3M melanoma) of 23.6 µM and a TGI (MALME-3M melanoma) of 62.8 µM. For the same compound, the GI50 (SK-MEL-5 melanoma) was 17.9 µM, the TGI (SK-MEL-5 melanoma) was 39.7 µM and the GI50 (SW-620 colon) was 48.7 µM. For the same compound, the TGI (SW-620 colon) was greater than 81.2 µM, the GI50 (KM12 colon) was 36.8 µM and the TGI (KM12 colon) was greater than 100 µM. The GI50 (OVCAR-5 ovarian) was 39.9 µM, the TGI (OVCAR-5 ovarian) was greater than 100 µM and the GI50 (HL-60(TB) leukemia) was 21.8 µM. For the same compound, the TGI (HL-60(TB) leukemia) was 36.6 µM, the GI50 (MDA-MB-435 melanoma) was 24.2 µM and the TGI (MDA-MB-435 melanoma) was 56.5 µM. The GI50 (IGROV1 ovarian) was 24.1 µM, the TGI (IGROV1 ovarian) was 59.2 µM and the GI50 (PC-3 prostate) was 18.5 µM. It also gave a TGI (PC-3 prostate) of 52.6 µM, a GI50 (CAKI-1 renal) of 28.6 µM and a TGI (CAKI-1 renal) greater than 100 µM.
